Reference: patent US11629171B2, “Beta-hairpin peptidomimetics” (POLYPHOR AG, priority 2017, dated 2023)
≈ marks a conversion by molar mass, not a printed value. Where a SMILES comes first, the peptide text is derived from it. Bridges are numbered along the chain shown (N, C = ends). Roman numbers before positions name the chains, in order. [ ]: non-standard residue; d: D form. The star is where a group is joined. Thr(ol) = C[C@@H](O)[C@H](N)CO; Tle = CC(C)(C)[C@H](N)C(=O)O; Hiv = CC(C)[C@H](O)C(=O)O; Isovaleryl = CC(C)CC(=O)*; dDab = NCC[C@@H](N)C(=O)O; hSer = N[C@@H](CCO)C(=O)O; Isobutyryl = CC(C)C(=O)*; NHCH(CH2OH)2 = OCC(CO)N*; Dab = NCC[C@H](N)C(=O)O; Dap = NC[C@H](N)C(=O)O; NHCH2CH2OH = OCCN*

Legend:
Assay type in all cases: cell-based
[1] = system: human red blood cells (hRBC); test: Hemolysis; conditions: red cells of human, 1 h, 200
Outline: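 Washed fresh human RBC (20% v/v) incubated with peptide at 200 μg/mL for 1 h at 37° C with shaking. Supernatant OD540 measured after dilution, blank corrected; percent hemolysis = OD540 peptide / OD540 of 2% Triton X-100 lysis × 100, PBS with 10% water as 0%.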

[2] = system: Klebsiella pneumoniae SSI #3010; conditions: SSI #3010
Outline: (§1)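 Standard CLSI microdilution testing: bacterial suspensions standardized against 0.5 McFarland to about 10^6 CFU/mL in MH-II broth meet serially halved peptide concentrations in broth containing 0.002% polysorbate 80; incubation lasts 18-20 h at 35° C before the MIC is scored.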

[3] = system: Klebsiella pneumoniae 968733; conditions: 968733
Outline: as §1

[4] = system: Acinetobacter baumannii DSM 30008; conditions: DSM 30008
Outline: as §1

[5] = system: Acinetobacter baumannii 872842; conditions: 872842
Outline: as §1

[6] = system: Enterobacter cloacae 848840; conditions: 848840
Outline: as §1

[7] = system: Escherichia coli ATCC 25922; conditions: ATCC 25922
Outline: as §1

[8] = system: Pseudomonas aeruginosa ATCC 27853; conditions: ATCC 27853
Outline: as §1

[9] = system: Escherichia coli 926415; conditions: 926415
Outline: as §1

| Compound | MIC [2] [µg/mL] | MIC [3] [µg/mL] | MIC [4] [µg/mL] | MIC [5] [µg/mL] | MIC [6] [µg/mL] | MIC [7] [µg/mL] | MIC [8] [µg/mL] | MIC [9] [µg/mL] | Hemolysis at 200 μg/mL [1] [%] |
| --- | --- | --- | --- | --- | --- | --- | --- | --- | --- |
| CC(C)CC(=O)N[C@H]1CSSC[C@@H](C(=O)NCCO)NC(=O)[C@H](C(C)(C)C)NC(=O)[C@H](CO)NC(=O)[C@H](Cc2c[nH]c3ccccc23)NC(=O)[C@H]([C@@H](C)O)NC(=O)[C@@H](CCN)NC(=O)[C@H](CCC(=O)N[C@@H](CCN)C(=O)N[C@H](C(=O)N[C@@H](CCN)C(=O)N[C@H]2CCNC(=O)[C@H]([C@@H](C)O)NC(=O)[C@H](CCN)NC(=O)[C@H](CCN)NC(=O)[C@H](CC(C)C)NC(=O)[C@@H](CC(C)C)NC(=O)[C@H](CCN)NC2=O)[C@@H](C)O)NC(=O)[C@H](CN)NC(=O)[C@H](Cc2ccc(O)cc2)NC1=O [Example 1] (I: Isovaleryl-CY[Dap]E[dDab]TWS[Tle]C-NHCH2CH2OH / II: [Dab]T[Dab][Dab][Dab][dL]L[Dab][Dab]T; disulfide I:1-I:10; amide I:4-II:N; lactam II:4-II:C) | 0.5 (≈ 0.215 µM) | 2 (≈ 0.86 µM) | 0.125 (≈ 0.0537 µM) | 1 (≈ 0.43 µM) | 4 (≈ 1.72 µM) | 0.125 (≈ 0.0537 µM) | 0.125 (≈ 0.0537 µM) | 1 (≈ 0.43 µM) | <1 |
| CC(C)CC(=O)N[C@H]1CSSC[C@@H](C(=O)N[C@H](CO)[C@@H](C)O)NC(=O)[C@H](C(C)(C)C)NC(=O)[C@H](CO)NC(=O)[C@H](Cc2c[nH]c3ccccc23)NC(=O)[C@H](CCO)NC(=O)[C@@H](CCN)NC(=O)[C@H](CCC(=O)N[C@@H](CCN)C(=O)N[C@H](C(=O)N[C@@H](CCN)C(=O)N[C@H]2CCNC(=O)[C@H]([C@@H](C)O)NC(=O)[C@H](CCN)NC(=O)[C@H](CCN)NC(=O)[C@H](CC(C)C)NC(=O)[C@@H](CC(C)C)NC(=O)[C@H](CCN)NC2=O)[C@@H](C)O)NC(=O)[C@H](CCN)NC(=O)[C@H](Cc2ccc(O)cc2)NC1=O [Example 2] (I: Isovaleryl-CY[Dab]E[dDab][hSer]WS[Tle]C[Thr(ol)] / II: [Dab]T[Dab][Dab][Dab][dL]L[Dab][Dab]T; disulfide I:1-I:10; amide I:4-II:N; lactam II:4-II:C) | 0.5 (≈ 0.21 µM) | 0.25 (≈ 0.105 µM) | 0.125 (≈ 0.0524 µM) | 0.125 (≈ 0.0524 µM) | 0.5 (≈ 0.21 µM) | 0.125 (≈ 0.0524 µM) | 0.25 (≈ 0.105 µM) | 0.125 (≈ 0.0524 µM) | <1 |
| CC(C)C[C@@H]1NC(=O)[C@@H](CC(C)C)NC(=O)[C@H](CCN)NC(=O)[C@@H](NC(=O)[C@H](CCN)NC(=O)[C@@H](NC(=O)[C@H](CCN)NC(=O)CC[C@@H]2NC(=O)[C@H](CCN)NC(=O)[C@H](Cc3ccc(O)cc3)NC(=O)[C@@H](NC(=O)C(C)C)CSSC[C@@H](C(=O)N[C@H](CO)[C@@H](C)O)NC(=O)[C@H](C(C)(C)C)NC(=O)[C@H](CO)NC(=O)[C@H](Cc3c[nH]c4ccccc34)NC(=O)[C@H](CCO)NC(=O)[C@@H](CCN)NC2=O)[C@@H](C)O)CCNC(=O)[C@H]([C@@H](C)O)NC(=O)[C@H](CCN)NC(=O)[C@H](CCN)NC1=O [Example 3] (I: Isobutyryl-CY[Dab]E[dDab][hSer]WS[Tle]C[Thr(ol)] / II: [Dab]T[Dab][Dab][Dab][dL]L[Dab][Dab]T; disulfide I:1-I:10; amide I:4-II:N; lactam II:4-II:C) | 0.125 (≈ 0.0527 µM) | 0.25 (≈ 0.105 µM) | 0.0625 (≈ 0.0264 µM) | 0.125 (≈ 0.0527 µM) | 2 (≈ 0.844 µM) | 0.125 (≈ 0.0527 µM) | 0.125 (≈ 0.0527 µM) | 0.25 (≈ 0.105 µM) | <1 |
| CC(C)CC(=O)N[C@H]1CSSC[C@@H](C(=O)N[C@H](CO)[C@@H](C)O)NC(=O)[C@H](C(C)(C)C)NC(=O)[C@H](CO)NC(=O)[C@H](Cc2c[nH]c3ccccc23)NC(=O)[C@H]([C@@H](C)O)NC(=O)[C@@H](CCN)NC(=O)[C@H](CCC(=O)N[C@@H](CCN)C(=O)N[C@H](C(=O)N[C@@H](CCN)C(=O)N[C@H]2CCNC(=O)[C@H]([C@@H](C)O)NC(=O)[C@H](CCN)NC(=O)[C@H](CCN)NC(=O)[C@H](CC(C)C)NC(=O)[C@@H](CC(C)C)NC(=O)[C@H](CCN)NC2=O)[C@@H](C)O)NC(=O)[C@H](CN)NC(=O)[C@H](Cc2ccc(O)cc2)NC1=O [Example 4] (I: Isovaleryl-CY[Dap]E[dDab]TWS[Tle]C[Thr(ol)] / II: [Dab]T[Dab][Dab][Dab][dL]L[Dab][Dab]T; disulfide I:1-I:10; amide I:4-II:N; lactam II:4-II:C) | 0.125 (≈ 0.0527 µM) | 0.5 (≈ 0.211 µM) | 0.0625 (≈ 0.0264 µM) | 0.125 (≈ 0.0527 µM) | 0.25 (≈ 0.105 µM) | 0.125 (≈ 0.0527 µM) | 0.125 (≈ 0.0527 µM) | 0.25 (≈ 0.105 µM) | 1 |
| CC(C)CC(=O)N[C@H]1CSSC[C@@H](C(=O)NC(CO)CO)NC(=O)[C@H](C(C)(C)C)NC(=O)[C@H](CO)NC(=O)[C@H](Cc2c[nH]c3ccccc23)NC(=O)[C@H]([C@@H](C)O)NC(=O)[C@@H](CCN)NC(=O)[C@H](CCC(=O)N[C@@H](CCN)C(=O)N[C@H](C(=O)N[C@@H](CCN)C(=O)N[C@H]2CCNC(=O)[C@H]([C@@H](C)O)NC(=O)[C@H](CCN)NC(=O)[C@H](CCN)NC(=O)[C@H](CC(C)C)NC(=O)[C@@H](CC(C)C)NC(=O)[C@H](CCN)NC2=O)[C@@H](C)O)NC(=O)[C@H](CN)NC(=O)[C@H](Cc2ccc(O)cc2)NC1=O [Example 5] (I: Isovaleryl-CY[Dap]E[dDab]TWS[Tle]C-{NHCH(CH2OH)2} / II: [Dab]T[Dab][Dab][Dab][dL]L[Dab][Dab]T; disulfide I:1-I:10; amide I:4-II:N; lactam II:4-II:C) | 0.125 (≈ 0.053 µM) | 0.25 (≈ 0.106 µM) | 0.0625 (≈ 0.0265 µM) | 0.125 (≈ 0.053 µM) | 0.125 (≈ 0.053 µM) | 0.0625 (≈ 0.0265 µM) | 0.125 (≈ 0.053 µM) | 0.125 (≈ 0.053 µM) | <1 |

Further lines, with some results ahead:

| MIC [2] [µg/mL] | MIC [3] [µg/mL] | MIC [4] [µg/mL] | MIC [5] [µg/mL] | MIC [6] [µg/mL] | MIC [7] [µg/mL] | MIC [8] [µg/mL] | MIC [9] [µg/mL] | Compound | Hemolysis at 200 μg/mL [1] [%] |
| --- | --- | --- | --- | --- | --- | --- | --- | --- | --- |
| 0.25 (≈ 0.106 µM) | 0.5 (≈ 0.212 µM) | 0.125 (≈ 0.0531 µM) | 4 (≈ 1.7 µM) | 4 (≈ 1.7 µM) | 0.125 (≈ 0.0531 µM) | 0.125 (≈ 0.0531 µM) | 0.5 (≈ 0.212 µM) | CC(=O)N[C@H](C(=O)N[C@H]1CSSC[C@@H](C(N)=O)NC(=O)[C@H](C(C)C)NC(=O)[C@H](CCO)NC(=O)[C@H](Cc2c[nH]c3ccccc23)NC(=O)[C@H](CCO)NC(=O)[C@@H](CCN)NC(=O)[C@H](CCC(=O)N[C@@H](CCN)C(=O)N[C@H](C(=O)N[C@@H](CCN)C(=O)N[C@H]2CCNC(=O)[C@H]([C@@H](C)O)NC(=O)[C@H](CCN)NC(=O)[C@H](CCN)NC(=O)[C@H](CC(C)C)NC(=O)[C@@H](CC(C)C)NC(=O)[C@H](CCN)NC2=O)[C@@H](C)O)NC(=O)[C@H](CCN)NC(=O)[C@H](Cc2ccc(O)cc2)NC1=O)C(C)C [Example 6] (I: Ac-VCY[Dab]E[dDab][hSer]W[hSer]VC-NH2 / II: [Dab]T[Dab][Dab][Dab][dL]L[Dab][Dab]T; disulfide I:2-I:11; amide I:5-II:N; lactam II:4-II:C) | 2 |
| 0.125 (≈ 0.054 µM) | 0.25 (≈ 0.108 µM) | 0.0625 (≈ 0.027 µM) | 1 (≈ 0.432 µM) | 2 (≈ 0.865 µM) | 0.125 (≈ 0.054 µM) | 0.125 (≈ 0.054 µM) | 0.5 (≈ 0.216 µM) | CC(C)C[C@@H]1NC(=O)[C@@H](CC(C)C)NC(=O)[C@H](CCN)NC(=O)[C@@H](NC(=O)[C@H](CCN)NC(=O)[C@@H](NC(=O)[C@H](CCN)NC(=O)CC[C@@H]2NC(=O)[C@H](CCN)NC(=O)[C@H](Cc3ccc(O)cc3)NC(=O)[C@@H](NC(=O)[C@@H](O)C(C)C)CSSC[C@@H](C(N)=O)NC(=O)[C@H](C(C)(C)C)NC(=O)[C@H](CO)NC(=O)[C@H](Cc3c[nH]c4ccccc34)NC(=O)[C@H](CCO)NC(=O)[C@@H](CCN)NC2=O)[C@@H](C)O)CCNC(=O)[C@H]([C@@H](C)O)NC(=O)[C@H](CCN)NC(=O)[C@H](CCN)NC1=O [Example 7] (I: H-[Hiv]CY[Dab]E[dDab][hSer]WS[Tle]C-NH2 / II: [Dab]T[Dab][Dab][Dab][dL]L[Dab][Dab]T; disulfide I:2-I:11; amide I:5-II:N; lactam II:4-II:C) | <1 |
| 0.125 (≈ 0.0541 µM) | 0.25 (≈ 0.108 µM) | 0.125 (≈ 0.0541 µM) | 0.0625 (≈ 0.027 µM) | 0.25 (≈ 0.108 µM) | 0.0625 (≈ 0.027 µM) | 0.125 (≈ 0.0541 µM) | 0.5 (≈ 0.216 µM) | CC(=O)N[C@H](C(=O)N[C@H]1CSSC[C@@H](C(N)=O)NC(=O)[C@H](C(C)(C)C)NC(=O)[C@H](CO)NC(=O)[C@H](Cc2c[nH]c3ccccc23)NC(=O)[C@H](CO)NC(=O)[C@@H](CCN)NC(=O)[C@H](CCC(=O)N[C@@H](CCN)C(=O)N[C@H](C(=O)N[C@@H](CN)C(=O)N[C@H]2CCNC(=O)[C@H]([C@@H](C)O)NC(=O)[C@H](CCN)NC(=O)[C@H](CCN)NC(=O)[C@H](CC(C)C)NC(=O)[C@@H](CC(C)C)NC(=O)[C@H](CCN)NC2=O)[C@@H](C)O)NC(=O)[C@H](CN)NC(=O)[C@H](Cc2ccc(O)cc2)NC1=O)C(C)C [Example 8] (I: Ac-VCY[Dap]E[dDab]SWS[Tle]C-NH2 / II: [Dab]T[Dap][Dab][Dab][dL]L[Dab][Dab]T; disulfide I:2-I:11; amide I:5-II:N; lactam II:4-II:C) | <1 |
